Laboratory results as given in US11000033B2, “Ketone or oxime compound, and herbicide” (NISSAN CHEMICAL CORPORATION, priority 2014, dated 2021).

What was measured:
Assay type in all cases: in vivo
[1] = system: Avena fatua; test: Test Example 5: herbicidal effect by foliage application, plastic box (symbol I); settings: 320 g/ha, 3 weeks after application
In short: (§1)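 Emulsion formulation, diluted with water to the intended rate, was applied uniformly to leaves by small sprayer. Recipients were 14-day greenhouse-grown seedlings (25° C. to 30° C.). Assessment followed at 3 weeks.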

[2] = system: directly sowed rice plant; test: Test Example 3: effect on crop by foliage application, Wagner pot (symbol b); settings: application herbicide amount 320 g/ha
In short: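 Steps: fill a 1/10000-are Wagner pot with alluvial soil; add water and mix to submerge at 0.1–0.5 cm depth; sow rice plus Echinochloa crus-galli var. crus-galli, Leptochloa chinensis and Cyperus difformis; grow in a 25–30 °C greenhouse.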

[3] = system: Veronica persica; test: Test Example 4: herbicidal effect by soil treatment (symbol R); settings: 320 g/ha
In short: (§2)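 Seeds were sown in sterilized diluvial soil, covered with about 1.5 cm of soil, and the soil surface was sprayed with a water-diluted emulsion of the compound at a predetermined rate. Plants grew in a greenhouse at 25° C. to 30° C.; effects were scored visually 3 weeks after application.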

[4] = system: Lolium multiflorum Lam.; test: Test Example 5: herbicidal effect by foliage application, plastic box (symbol K); settings: 320 g/ha, 3 weeks after application
In short: as §1

[5] = system: wheat; test: Test Example 5: effect on crop by foliage application, plastic box (symbol e); settings: 320 g/ha, 3 weeks after application
In short: (§3)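 Diluvial soil, sterilized and boxed (21 × 13 × 7 cm), received spot-sown seed covered by about 1.5 cm soil; plants were then greenhouse-grown at 25–30° C.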

[6] = system: transplanted rice plant; test: Test Example 1: effect on crop, application before weed generation in submerged conditions (symbol a); settings: application herbicide amount 320 g/ha
In short: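 Rice at 2.5 leaf stage transplanted into submerged soil (4 cm depth) sown with three weed species; herbicide applied before weed emergence.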

[7] = system: Setaria viridis; test: Test Example 4: herbicidal effect by soil treatment (symbol G); settings: 320 g/ha
In short: as §2

[8] = system: rapeseed; test: Test Example 5: effect on crop by foliage application, plastic box (symbol g); settings: 320 g/ha, 3 weeks after application
In short: as §3

[9] = system: Echinochloa oryzacola Vasing.; test: Test Example 1: herbicidal activity, application before weed generation in submerged conditions (symbol A); settings: application herbicide amount 320 g/ha
In short: (§4)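 Pre-emergence, paddy conditions: emulsifiable formulation diluted in water, dosed onto floodwater (4 cm depth) on sowing day. Alluvial soil; weeds sown mixed; rice transplanted at 2.5-leaf stage. Greenhouse 25–30 °C, 3 wk. Score 0–5 (5 = ≥90% kill, 0 = ≤5%).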

[10] = system: Scirpus juncoides; test: Test Example 1: herbicidal activity, application before weed generation in submerged conditions (symbol B); settings: application herbicide amount 320 g/ha
In short: as §4

[11] = system: Apera spica-venti; test: Test Example 4: herbicidal effect by soil treatment (symbol L); settings: 320 g/ha
In short: as §2

[12] = system: Monochoria vaginalis; test: Test Example 1: herbicidal activity, application before weed generation in submerged conditions (symbol C); settings: application herbicide amount 320 g/ha
In short: as §4

[13] = system: Apera spica-venti; test: Test Example 5: herbicidal effect by foliage application, plastic box (symbol L); settings: 320 g/ha, 3 weeks after application
In short: as §1

[14] = system: Galium spurium; test: Test Example 5: herbicidal effect by foliage application, plastic box (symbol Q); settings: 320 g/ha, 3 weeks after application
In short: as §1

[15] = system: Digitaria ciliaris; test: Test Example 5: herbicidal effect by foliage application, plastic box (symbol F); settings: 320 g/ha, 3 weeks after application
In short: as §1

[16] = system: Stellaria media; test: Test Example 4: herbicidal effect by soil treatment (symbol P); settings: 320 g/ha
In short: as §2

[17] = system: Galium spurium; test: Test Example 4: herbicidal effect by soil treatment (symbol Q); settings: 320 g/ha
In short: as §2

[18] = system: Abutilon theophrasti; test: Test Example 4: herbicidal effect by soil treatment (symbol M); settings: 320 g/ha
In short: as §2

Structure (SMILES) | I: Avena fatua, herbicidal effect (criteria 0-5) [1] | effect on crop b (directly sowed rice plant), grade 0-5 [2] | R: Veronica persica, herbicidal effect grade [3] | K: Lolium multiflorum Lam., herbicidal effect (criteria 0-5) [4] | e: wheat, effect on crop (criteria 0-5) [5] | Effect grade on crop, a: transplanted rice plant [6] | G: Setaria viridis, herbicidal effect grade [7] | g: rapeseed, effect on crop (criteria 0-5) [8] | Herbicidal effect grade, A: Echinochloa oryzacola Vasing. [9] | Herbicidal effect grade, B: Scirpus juncoides [10] | L: Apera spica-venti, herbicidal effect grade [11] | Herbicidal effect grade, C: Monochoria vaginalis [12] | L: Apera spica-venti, herbicidal effect (criteria 0-5) [13] | Q: Galium spurium, herbicidal effect (criteria 0-5) [14] | F: Digitaria ciliaris, herbicidal effect (criteria 0-5) [15] | P: Stellaria media, herbicidal effect grade [16] | Q: Galium spurium, herbicidal effect grade [17] | M: Abutilon theophrasti, herbicidal effect grade [18]
CC(CC1CC(O)=C(c2c(C)cc(C)cc2C)C1=O)=NOCC(C)Cl (stereo not drawn) [1-121] | 5 (Herbicidal ratio of 90% or more (almost completely withered)) | 5 (Herbicidal ratio of 90% or more (almost completely withered)) | 0 (Herbicidal ratio of 5% or lower (almost no effect)) | 5 (Herbicidal ratio of 90% or more (almost completely withered)) | 3 (Herbicidal ratio of 40% or higher and lower than 70%) | 5 (Herbicidal ratio of 90% or more (almost completely withered)) | 5 (Herbicidal ratio of 90% or more (almost completely withered)) | 5 (Herbicidal ratio of 90% or more (almost completely withered)) | 5 (Herbicidal ratio of 90% or more (almost completely withered)) | 5 (Herbicidal ratio of 90% or more (almost completely withered)) | 5 (Herbicidal ratio of 90% or more (almost completely withered)) | 3 (Herbicidal ratio of 40% or higher and lower than 70%) | 5 (Herbicidal ratio of 90% or more (almost completely withered)) | 0 (Herbicidal ratio of 5% or lower (almost no effect)) | 5 (Herbicidal ratio of 90% or more (almost completely withered)) | 0 (Herbicidal ratio of 5% or lower (almost no effect)) | 0 (Herbicidal ratio of 5% or lower (almost no effect)) | 0 (Herbicidal ratio of 5% or lower (almost no effect))
CON=C(C)CC1CC(OS(=O)(=O)N(C)C)=C(c2c(C)cc(C)cc2C)C1=O (stereo not drawn) [1-122] | 5 (Herbicidal ratio of 90% or more (almost completely withered)) | 5 (Herbicidal ratio of 90% or more (almost completely withered)) | 0 (Herbicidal ratio of 5% or lower (almost no effect)) | 5 (Herbicidal ratio of 90% or more (almost completely withered)) | 4 (Herbicidal ratio of 70% or higher and lower than 90%) | 5 (Herbicidal ratio of 90% or more (almost completely withered)) | 3 (Herbicidal ratio of 40% or higher and lower than 70%) | 5 (Herbicidal ratio of 90% or more (almost completely withered)) | 5 (Herbicidal ratio of 90% or more (almost completely withered)) | 5 (Herbicidal ratio of 90% or more (almost completely withered)) | 1 (Herbicidal ratio of 5% or higher and lower than 20%) | 0 (Herbicidal ratio of 5% or lower (almost no effect)) | 5 (Herbicidal ratio of 90% or more (almost completely withered)) | 0 (Herbicidal ratio of 5% or lower (almost no effect)) | 4 (Herbicidal ratio of 70% or higher and lower than 90%) | 0 (Herbicidal ratio of 5% or lower (almost no effect)) | 0 (Herbicidal ratio of 5% or lower (almost no effect)) | 0 (Herbicidal ratio of 5% or lower (almost no effect))
CCCON=C(C)CC1CC(O)=C(c2c(C)cc(C)cc2C)C1=O (stereo not drawn) [1-123] | 5 (Herbicidal ratio of 90% or more (almost completely withered)) | 5 (Herbicidal ratio of 90% or more (almost completely withered)) | 0 (Herbicidal ratio of 5% or lower (almost no effect)) | 5 (Herbicidal ratio of 90% or more (almost completely withered)) | 5 (Herbicidal ratio of 90% or more (almost completely withered)) | 5 (Herbicidal ratio of 90% or more (almost completely withered)) | 5 (Herbicidal ratio of 90% or more (almost completely withered)) | 5 (Herbicidal ratio of 90% or more (almost completely withered)) | 5 (Herbicidal ratio of 90% or more (almost completely withered)) | 4 (Herbicidal ratio of 70% or higher and lower than 90%) | 5 (Herbicidal ratio of 90% or more (almost completely withered)) | 3 (Herbicidal ratio of 40% or higher and lower than 70%) | 5 (Herbicidal ratio of 90% or more (almost completely withered)) | 0 (Herbicidal ratio of 5% or lower (almost no effect)) | 5 (Herbicidal ratio of 90% or more (almost completely withered)) | 0 (Herbicidal ratio of 5% or lower (almost no effect)) | 0 (Herbicidal ratio of 5% or lower (almost no effect)) | 3 (Herbicidal ratio of 40% or higher and lower than 70%)
CC(CC1CC(O)=C(c2c(C)cc(C)cc2C)C1=O)=NOCC(N)=O (stereo not drawn) [1-124] | 2 (Herbicidal ratio of 20% or higher and lower than 40%) | 5 (Herbicidal ratio of 90% or more (almost completely withered)) | 0 (Herbicidal ratio of 5% or lower (almost no effect)) | 4 (Herbicidal ratio of 70% or higher and lower than 90%) | 3 (Herbicidal ratio of 40% or higher and lower than 70%) | 0 (Herbicidal ratio of 5% or lower (almost no effect)) | 3 (Herbicidal ratio of 40% or higher and lower than 70%) | 4 (Herbicidal ratio of 70% or higher and lower than 90%) | 1 (Herbicidal ratio of 5% or higher and lower than 20%) | 0 (Herbicidal ratio of 5% or lower (almost no effect)) | 0 (Herbicidal ratio of 5% or lower (almost no effect)) | 0 (Herbicidal ratio of 5% or lower (almost no effect)) | 3 (Herbicidal ratio of 40% or higher and lower than 70%) | 0 (Herbicidal ratio of 5% or lower (almost no effect)) | 0 (Herbicidal ratio of 5% or lower (almost no effect)) | 0 (Herbicidal ratio of 5% or lower (almost no effect)) | 0 (Herbicidal ratio of 5% or lower (almost no effect)) | 0 (Herbicidal ratio of 5% or lower (almost no effect))
